Source: article PMC11327210, “A first-in-human phase I trial of daily oral zelenirstat, a N-myristoyltransferase inhibitor, in patients with advanced solid tumors and relapsed/refractory B-cell lymphomas” (Investigational New Drugs, 2024)
Like-named read-outs stand apart in the source and are kept apart here.

Key:
CYP3A4 = tested on: CYP3A4; parameters: method as in Pacylex, data on file; settings: preclinical models; ref Pacylex, data on file; cited from earlier work
[1] = tested on: cultured human cancer cells; parameters: method as in PMID 33093447; settings: wide variety of cultured human cancer cells; cited from earlier work
clinical = settings: human, in vivo; for AUC(0-t): AUC0 − 24 (h*ng/mL) (mean, SD); for Cmax: Cmax (ng/ml) (mean, SD)
Protocol: (§1) Peripheral blood samples were collected over six time points in the first 8 h of Cycle 1, Day 1 (C1D1), and again on C1D15. Pre-treatment Day 1 levels were obtained with every subsequent cycle.

[2] = tested on: cell line and patient derived xenograft models of AML; parameters: method as in doi:10.1182/blood-2022-170544; settings: cited from earlier work
[3] = parameters: method as in Pacylex, data on file; settings: preclinical models; ref Pacylex, data on file; cited from earlier work
rats = settings: rat, in vivo; cited from earlier work
[4] = parameters: method as in doi:10.1182/blood-2019-124934; settings: multiple daily oral administration; cited from earlier work
[5] = tested on: advanced solid tumors and relapsed/refractory (R/R) B-cell lymphomas; assay: Anticancer activity in phase I patients (RECIST 1.1 / Lugano, Kaplan-Meier); assay type: in vivo, human; settings: for No. of patients with best response SD: evaluable patients n = 24
Protocol: Tumor response assessments using CT imaging were performed every two cycles. RECIST 1.1 [11] or the Lugano Response Criteria for Lymphoma was used to determine tumor response and disease progression. For B-cell NHL patients with PET-CT at baseline, PET-CT was repeated after the sixth cycle to confirm complete response or disease progression. Patient archival specimens and blood samples were submitted for exploratory molecular analyses. Descriptive statistics were used for demographic, safety, and efficacy data. Categorical data were summarized using frequency counts and percentages. Time-to-event variables were analyzed by Kaplan-Meier methods. Weighted trajectory analysis for health outcomes used the Chauhan methodology.

[6] = human, in vivo
Protocol: as §1

[7] = MTD cohort 210 mg daily (n = 7) vs lower dose cohorts (n = 17)

In the case of `Cc1c(NS(=O)(=O)c2c(Cl)cc(-c3ccnc(N4CCNCC4)c3)cc2Cl)c(CC(C)C)nn1C` [zelenirstat], the metabolism (CYP3A4) is given as “metabolized in the liver primarily by CYP3A4”, the “effect on cultured human cancer cells” value [1] is given as “cytotoxic or cytostatic” and the half-life (clinical; half-life values across the dose cohorts) is given as 7.67 to 12 h. For the same compound, the Tmax (clinical; maximum Tmax value in patients taking PPI) was about 8 h, the half-life (clinical; mean terminal half-life across the dose cohorts) was 6.7 to 9.5 h and the Tmax (clinical; median Tmax range in patients taking proton pump inhibitors (PPI)) was 1 to 6 h. It also gave an AUC(0-t) (clinical; po, 20 mg) of 1580 ng·h/mL, a Cmax (clinical; po, 20 mg) of 359 ng/mL and a Tmax (clinical; po, 20 mg, Tmax (h) (median, range)) of 2 h. For the same compound, the half-life (clinical; po, 20 mg, t1/2 (h) (mean, SD)) was 6.7 h, the AUC(0-t) (clinical; po, 40 mg) was 4820 ng·h/mL and the Cmax (clinical; po, 40 mg) was 848 ng/mL. For the same compound, the half-life (clinical; po, 40 mg, t1/2 (h) (mean, SD)) was 9.2 h, the AUC(0-t) (clinical; po, 70 mg) was 5650 ng·h/mL and the Cmax (clinical; po, 70 mg) was 665 ng/mL. For the same compound, the Tmax (clinical; po, 70 mg, Tmax (h) (median, range)) was 3.9 h, the half-life (clinical; po, 70 mg, t1/2 (h) (mean, SD)) was 9.5 h and the AUC(0-t) (clinical; po, 100 mg) was 24700 ng·h/mL. It also gave a Cmax (clinical; po, 100 mg) of 2300 ng/mL, a Tmax (clinical; po, 100 mg, Tmax (h) (median, range)) of 4 h and a half-life (clinical; po, 100 mg, t1/2 (h) (mean, SD)) of 12 h. It also gave an AUC(0-t) (clinical; po, 140 mg) of 11900 ng·h/mL, a Cmax (clinical; po, 140 mg) of 1770 ng/mL and a Tmax (clinical; po, 140 mg, Tmax (h) (median, range)) of 1 h. It also gave a half-life (clinical; po, 140 mg, t1/2 (h) (mean, SD)) of 7.2 h, an AUC(0-t) (clinical; po, 210 mg) of 14700 ng·h/mL and a Cmax (clinical; po, 210 mg) of 1770 ng/mL. It also gave a Tmax (clinical; po, 210 mg, Tmax (h) (median, range)) of 3 h, a half-life (clinical; po, 210 mg, t1/2 (h) (mean, SD)) of 7.8 h and a Tmax (clinical; po, median Tmax values across the dose cohorts) of 1 to 4 h. The half-life (clinical; po, terminal half-lives, average) was 10 h, the Tmax (clinical; po, time of peak plasma concentrations) was 2 h and the xenograft tumor response [2] was “similarly profound remissions”. For the same compound, the plasma protein binding [3] was “highly bound to plasma protein”, the “toxicities in formal toxicologic evaluation” value (rats) was “acute gastrointestinal and hematologic toxicities” and the “dose limiting toxicity in GLP non-clinical safety testing” value [4] was “diarrhea was dose limiting”. For the same compound, the “Overall Survival (Kaplan-Meier)” value [5, 7] was “statistically significantly longer overall survival”, the “Progression-Free Survival (Kaplan-Meier)” value [5, 7] was “statistically significantly longer PFS” and the objective responses ([5]; all dose cohorts) was “No objective responses”. For the same compound, the “No. of patients with best response SD” value ([5]; dose level 2: 40 mg, pancreatic adenocarcinoma) was 1, the “No. of patients with best response SD” value ([5]; dose level 5: 140 mg, CRC) was 1 and the “No. of patients with best response SD” value ([5]; dose level 6: 210 mg, CRC (2), ovarian (2), appendiceal carcinoma) was 5. The “No. of patients with best response SD” value ([5]; dose level 7: 280 mg, after DLT modified to 210 mg daily, bladder) was 1, the “Stable disease as best response, patients” value ([5]; eight of 29 patients, all dose cohorts) was 28% and the “reduction in serum carcinoembryonic antigen (CEA) level” value ([5]; one patient, metastatic colon adenocarcinoma, 210 mg) was 48%. The duration on zelenirstat ([5]; one patient, metastatic colon adenocarcinoma, 210 mg, SD, continuing) was at least 420 days, the “reduction in sum of longest dimensions of the target lesions” value ([5]; one patient, metastatic colon adenocarcinoma, 210 mg, ongoing) was 13% and the “reduction in cancer antigen 125 (CA125)” value ([5]; one patient, refractory ovarian cancer, 210 mg) was 20%. For the same compound, the “Plasma concentrations (Cmax and AUC values) in patients on PPIs compared to patients not taking PPIs” value [6] was “tended to be lower”, the “Systemic exposure (Cmax and AUC values) versus dose” value [6] was “tended to increase with increasing dose” and the “time to steady state (visual observation of pre-dose concentrations)” value [6] was 8 to 15 days. The “accumulation following repeated administration” value ([6]; 14 day) was under 2 fold, the “accumulation ratio for AUC0 − 24 (ArAUC0−24)” value ([6]; 14 day) was 1.0-1.9 and the “accumulation ratio for Cmax (ArCmax)” value ([6]; 14 day) was 0.41-1.72. For the same compound, the “accumulation ratios for both ArCmax and ArAUC0−24” value ([6]; 14 days) was 3-6 fold, the “time to steady state” value ([6]; po) was at most 15 days and the “AUC0 − 24 (h*ng/mL) (mean, SD)” value ([6]; po, 20 mg) was 2066 (387) h*ng/mL. The “Cmax (ng/ml) (mean, SD)” value ([6]; po, 20 mg) was 276 (117) ng/ml, the “Tmax (h) (median, range)” value ([6]; po, 20 mg) was 1 (0.5–2.1) h and the “t1/2 (h) (mean, SD)” value ([6]; po, 20 mg) was 7.4 (2.0) h. For the same compound, the “AUC0 − 24 (h*ng/mL) (mean, SD)” value ([6]; po, 40 mg) was 7060 (6711) h*ng/mL, the “Cmax (ng/ml) (mean, SD)” value ([6]; po, 40 mg) was 774 (720) ng/ml and the “t1/2 (h) (mean, SD)” value ([6]; po, 40 mg) was 9.7 (3.0) h. The “AUC0 − 24 (h*ng/mL) (mean, SD)” value ([6]; po, 70 mg) was 6613 (3526) h*ng/mL, the “Cmax (ng/ml) (mean, SD)” value ([6]; po, 70 mg) was 467 (257) ng/ml and the “Tmax (h) (median, range)” value ([6]; po, 70 mg) was 4.1 (4.0-7.9) h. The “AUC0 − 24 (h*ng/mL) (mean, SD)” value ([6]; po, 100 mg) was 18,936 (9188) h*ng/mL, the “Cmax (ng/ml) (mean, SD)” value ([6]; po, 100 mg) was 2188 (1037) ng/ml and the “Tmax (h) (median, range)” value ([6]; po, 100 mg) was 2.0 (2.0-3.8) h. For the same compound, the “t1/2 (h) (mean, SD)” value ([6]; po, 100 mg) was 8.0 (2.3) h, the “AUC0 − 24 (h*ng/mL) (mean, SD)” value ([6]; po, 140 mg) was 8150 (2846) h*ng/mL and the “Cmax (ng/ml) (mean, SD)” value ([6]; po, 140 mg) was 1335 (964) ng/ml. For the same compound, the “Tmax (h) (median, range)” value ([6]; po, 140 mg) was 2.0 (1.0–2.0) h, the “t1/2 (h) (mean, SD)” value ([6]; po, 140 mg) was 10.4 (5.5) h and the “AUC0 − 24 (h*ng/mL) (mean, SD)” value ([6]; po, 210 mg) was 27,558 (13,349) h*ng/mL. The “Cmax (ng/ml) (mean, SD)” value ([6]; po, 210 mg) was 2935 (1047) ng/ml, the “Tmax (h) (median, range)” value ([6]; po, 210 mg) was 2.0 (1.0-3.9) h and the “t1/2 (h) (mean, SD)” value ([6]; po, 210 mg) was 7.7 (3.4) h.
